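At the GI50, growth is halved. TGI is the concentration that stops growth completely.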
Tests used:
Test in all cases: NCI-60 cell line screen, 384-well format
[1] = tested on: 786-0 renal
[2] = tested on: A498 renal
[3] = tested on: A549 NSCLC
[4] = tested on: ACHN renal
[5] = tested on: BT-549 breast
[6] = tested on: CAKI-1 renal
[7] = tested on: COLO 205 colon
[8] = tested on: DU-145 prostate
[9] = tested on: EKVX NSCLC
[10] = tested on: HCT-116 colon
[11] = tested on: HCT-15 colon
[12] = tested on: HL-60(TB) leukemia
[13] = tested on: HOP-62 NSCLC
[14] = tested on: HOP-92 NSCLC
[15] = tested on: HS 578T breast
[16] = tested on: HT29 colon
[17] = tested on: IGROV1 ovarian
[18] = tested on: K-562 leukemia
[19] = tested on: KM12 colon
[20] = tested on: M14 melanoma
[21] = tested on: MALME-3M melanoma
[22] = tested on: MCF7 breast
[23] = tested on: MDA-MB-231 breast
[24] = tested on: MDA-MB-435 melanoma
[25] = tested on: MDA-MB-468 breast
[26] = tested on: MOLT-4 leukemia
[27] = tested on: NCI-H226 lung
[28] = tested on: NCI-H23 lung
[29] = tested on: NCI-H322M lung
[30] = tested on: NCI-H460 NSCLC
[31] = tested on: NCI-H522 lung
[32] = tested on: OVCAR-3 ovarian
[33] = tested on: OVCAR-4 ovarian
[34] = tested on: OVCAR-5 ovarian
[35] = tested on: OVCAR-8 ovarian
[36] = tested on: PC-3 prostate
[37] = tested on: RXF 393 renal
[38] = tested on: SF-268 CNS
[39] = tested on: SF-295 CNS
[40] = tested on: SF-539 CNS
[41] = tested on: SK-MEL-2 melanoma
[42] = tested on: SK-MEL-28 melanoma
[43] = tested on: SK-MEL-5 melanoma
[44] = tested on: SK-OV-3 ovarian
[45] = tested on: SN12C renal
[46] = tested on: SNB-19 CNS
[47] = tested on: SNB-75 CNS
[48] = tested on: SR leukemia
[49] = tested on: SW-620 colon
[50] = tested on: T-47D breast
[51] = tested on: TK-10 renal
[52] = tested on: U251 glioblastoma
[53] = tested on: UACC-257 melanoma
[54] = tested on: UACC-62 melanoma
[55] = tested on: UO-31 renal

For `C[C@@H](N)COc1ccc(-c2cnc3ccc(N[C@H](C)c4cccc(F)c4)nn23)cc1`, the GI50 [1] was 1.55 µM, the TGI [1] was 2.9 µM and the GI50 [2] was 1.59 µM. For the same compound, the TGI [2] was 2.96 µM, the GI50 [3] was 1.56 µM and the TGI [3] was 2.94 µM. For the same compound, the GI50 [4] was 1.57 µM, the TGI [4] was 2.94 µM and the GI50 [5] was 1.37 µM. It also gave a TGI [5] of 2.66 µM, a GI50 [6] of 1.68 µM and a TGI [6] of 3.05 µM. It also gave a GI50 [7] of 1.62 µM, a TGI [7] of 3.01 µM and a GI50 [8] of 1.53 µM. The TGI [8] was 2.96 µM, the GI50 [9] was 1.02 µM and the TGI [9] was 2.22 µM. It also gave a GI50 [10] of 1.49 µM, a TGI [10] of 2.86 µM and a GI50 [11] of 1.63 µM. The TGI [11] was 3.04 µM, the GI50 [12] was 1.07 µM and the TGI [12] was 2.27 µM. For the same compound, the GI50 [13] was 1.73 µM, the TGI [13] was 3.16 µM and the GI50 [14] was 1.51 µM. It also gave a TGI [14] of 2.85 µM, a GI50 [15] of 1.47 µM and a TGI [15] of 2.8 µM. The GI50 [16] was 1.3 µM, the TGI [16] was 2.59 µM and the GI50 [17] was 1.62 µM. For the same compound, the TGI [17] was 3.05 µM, the GI50 [18] was 1.11 µM and the TGI [18] was 2.36 µM. It also gave a GI50 [19] of 1.6 µM, a TGI [19] of 3 µM and a GI50 [20] of 1.73 µM. The TGI [20] was 3.11 µM, the GI50 [21] was 1.68 µM and the TGI [21] was 3.06 µM. It also gave a GI50 [22] of 1.14 µM, a TGI [22] of 2.37 µM and a GI50 [23] of 1.42 µM. It also gave a TGI [23] of 2.76 µM, a GI50 [24] of 1.44 µM and a TGI [24] of 2.76 µM. The GI50 [25] was 1 µM, the TGI [25] was 2.17 µM and the GI50 [26] was 1.13 µM. For the same compound, the TGI [26] was 2.35 µM, the GI50 [27] was 1.43 µM and the TGI [27] was 2.83 µM. It also gave a GI50 [28] of 1.54 µM, a TGI [28] of 3.15 µM and a GI50 [29] of 2.18 µM. For the same compound, the TGI [29] was 4.1 µM, the TGI [30] was 1.44 µM and the GI50 [31] was 1.16 µM. It also gave a TGI [31] of 2.39 µM, a GI50 [32] of 1.62 µM and a TGI [32] of 3.16 µM. The GI50 [33] was 1.49 µM, the TGI [33] was 3.24 µM and the GI50 [34] was 1.25 µM. For the same compound, the TGI [34] was 2.61 µM, the GI50 [35] was 1.6 µM and the TGI [35] was 2.97 µM. It also gave a GI50 [36] of 1.46 µM, a TGI [36] of 2.91 µM and a GI50 [37] of 1.17 µM. It also gave a TGI [37] of 2.39 µM, a GI50 [38] of 1.59 µM and a TGI [38] of 2.96 µM. The GI50 [39] was 1.64 µM, the TGI [39] was 3.02 µM and the GI50 [40] was 1.42 µM. It also gave a TGI [40] of 2.74 µM, a GI50 [41] of 1.27 µM and a TGI [41] of 2.54 µM. The GI50 [42] was 1.63 µM, the TGI [42] was 3.01 µM and the GI50 [43] was 1.03 µM. For the same compound, the TGI [43] was 2.22 µM, the GI50 [44] was 1.47 µM and the TGI [44] was 2.85 µM. The GI50 [45] was 1.56 µM, the TGI [45] was 2.91 µM and the GI50 [46] was 2.06 µM. The TGI [46] was 4.04 µM, the GI50 [47] was 1.59 µM and the TGI [47] was 2.96 µM. It also gave a GI50 [48] of 0.0345 µM, a TGI [48] of 0.125 µM and a GI50 [49] of 1.43 µM. For the same compound, the TGI [49] was 2.78 µM, the GI50 [50] was 1.35 µM and the TGI [50] was 2.66 µM. The GI50 [51] was 1.52 µM, the TGI [51] was 2.9 µM and the GI50 [52] was 1.6 µM. The TGI [52] was 2.96 µM, the GI50 [53] was 1.38 µM and the TGI [53] was 2.69 µM. It also gave a GI50 [54] of 1.72 µM, a TGI [54] of 3.1 µM and a GI50 [55] of 1.79 µM. For the same compound, the TGI [55] was 3.19 µM.

From PubChem BioAssay (NCI)
